# Assay results as given in patent US9856216B2, “Compounds as TNIK, IKKε and TBK1 inhibitors and pharmaceutical composition comprising same” (GREEN CROSS CORPORATION, priority 2015, dated 2018).
# Biological target: T1, TNIK (Homo sapiens, UniProt Q9UKE5)
# T1 construct: purchased Promega V4158
# Assay: ADP-Glo Kinase Assay, inhibition activity on TNIK
# Type: biochemical
# Settings: not given
# Method: The inhibition activities on TNIK, IKKε and TBK1 were measured by a luminometer, TNIK/IKKε/TBK1 Kinase Enzyme System (Promega, Ca# V4158; Invitrogen, PR8031B, Promega, Ca# V3991) and ADP-Glo Kinase Assay using ADP-Glo™ Kinase Analysis Kit (Promega, Ca# V9101) and a kinase reaction buffer [40 mM Tris(pH 7.5), 20 mM MgCl2, 0.1 mg/mL BSA] in accordance with the manufacturer's protocol.
# T1 sequence (Q9UKE5 1-367 limits assumed): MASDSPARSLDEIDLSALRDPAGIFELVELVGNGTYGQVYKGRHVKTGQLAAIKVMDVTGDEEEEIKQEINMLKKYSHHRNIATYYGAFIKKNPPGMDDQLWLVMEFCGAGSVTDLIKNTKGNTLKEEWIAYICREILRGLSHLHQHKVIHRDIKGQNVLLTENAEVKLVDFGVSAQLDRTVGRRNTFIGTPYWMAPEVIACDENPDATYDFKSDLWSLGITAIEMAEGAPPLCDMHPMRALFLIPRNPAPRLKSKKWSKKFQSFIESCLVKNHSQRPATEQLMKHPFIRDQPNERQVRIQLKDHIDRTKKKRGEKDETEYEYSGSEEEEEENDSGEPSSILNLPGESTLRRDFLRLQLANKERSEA
row,TNIK (μM),Structure (SMILES)
1,Insoluble,"COc1cccc(-c2ccc(N)c3c2C(=O)NC3=O)c1OC [Example 273, 4-Amino-7-(2,3-dimethoxyphenyl)isoindolin-1,3-dione]"

# Same assay, conditions: read-out: TNIK
row,IC50,Structure (SMILES)
1,160 nM,"O=C(Nc1ccc(-c2ccnc3ccccc23)c2c1C(=O)NC2)c1ccc(F)cc1 [Example 216, 4-Fluoro-N-(3-oxo-7-(quinolin-4-yl)isoindolin-4-yl)benzamide]"
2,950 nM,"O=C(Nc1ccc(-c2ccccc2)c2c1C(=O)NC2)c1ccccc1F [Example 142, 2-Fluoro-N-(3-oxo-7-phenylisoindolin-4-yl)benzamide]"
3,590 nM,"O=C(Nc1ccc(-c2cccc3[nH]cnc23)c2c1C(=O)NC2)c1ccc(F)cc1 [Example 218, N-(7-(1H-benzo[d]imidazol-4-yl)-3-oxoisoindolin-4-yl)-4-fluorobenzamide]"
4,370 nM,"CN1CCN(CCCNc2ccc(C(=O)Nc3ccc(Nc4ccccc4)c4c3C(=O)NC4)cc2)CC1 [Example 463, 4-((3-(4-Methylpiperazin-1-yl)propyl)amino)-N-(3-oxo-7-(phenylamino)isoindolin-4-yl)benzamide]"
5,470 nM,"COc1ccccc1Nc1ccc(NC(=O)c2ccc(NCCCN3CCCC3)cc2)c2c1CNC2=O [Example 475, N-(7-((2-methoxyphenyl)amino)-3-oxoisoindolin-4-yl)-4-((3-(pyrrolidin-1-yl)propyl)amino)benzamide]"
6,> 20000 nM,"CC(C)c1ccc(-c2ccc(NC(=O)c3ccccc3)c3c2CNC3=O)cc1 [Example 133, N-(7-(4-isopropylphenyl)-3-oxoisoindolin-4-yl)benzamide]"
7,3000 nM,"Cc1cc(C)cc(-c2ccc(NC(=O)c3ccccc3)c3c2CNC3=O)c1 [Example 27, N-(7-(3,5-dimethylphenyl)-3-oxoisoindolin-4-yl)benzamide]"
8,> 20000 nM,"CCCOc1cccc(-c2ccc(NC(=O)c3ccccc3)c3c2CNC3=O)c1 [Example 44, N-(3-oxo-7-(3-propoxyphenyl)isoindolin-4-yl)benzamide]"
9,9800 nM,"CS(=O)(=O)c1ccc(-c2ccc(NC(=O)c3ccccc3)c3c2CNC3=O)cc1 [Example 167, N-(7-(4-(methylsulfonyl)phenyl)-3-oxoisoindolin-4-yl) benzamide]"
10,560 nM,"O=C(Nc1ccc(-c2ccco2)c2c1C(=O)NC2)c1ccc(NCCCN2CCOCC2)cc1 [Example 337, N-(7-(furan-2-yl)-3-oxoisoindolin-4-yl)-4-((3-morpholinopropyl)amino)benzamide]"
11,> 20000 nM,"Nc1ccc(-c2ccncc2)c2c1C(=O)NC2 [Example 65, 7-Amino-4-(pyridin-4-yl)isoindolin-1-one]"
12,680 nM,"NC1CCN(c2ccc(C(=O)Nc3ccc(-c4ccccc4)c4c3C(=O)NC4)cc2)CC1 [Example 340, 4-(4-Aminopiperidin-1-yl)-N-(3-oxo-7-phenylisoindolin-4-yl) benzamide]"
13,110 nM,"NC1CCN(c2ccc(C(=O)Nc3ccc(Nc4ccccc4)c4c3C(=O)NC4)cc2)CC1 [Example 491, 4-(4-Aminopiperidin-1-yl)-N-(3-oxo-7-(phenylamino)isoindolin-4-yl)benzamide]"
14,3300 nM,"O=C(Nc1ccc(-c2ccccc2)c2c1C(=O)NCC2)c1ccccc1 [Example 398, N-(1-oxo-5-phenyl-1,2,3,4-tetrahydroisoquinolin-8-yl) benzamide]"
15,180 nM,"O=C(Nc1ccc(-c2cccc(F)c2F)c2c1C(=O)NC2)c1ccc(NCCN2CCCC2)cc1 [Example 364, N-(7-(2,3-difluorophenyl)-3-oxoisoindolin-4-yl)-4-((2-(pyrrolidin-1-yl)ethyl)amino)benzamide]"
16,220 nM,COc1ccccc1-c1ccc(NC(=O)c2ccc(NCCCO)cc2)c2c1CNC2=O [Example 354]
17,620 nM,"O=C(Nc1ccc(Nc2cccnc2)c2c1C(=O)NC2)c1ccc(F)cc1 [Example 427, 4-Fluoro-N-(3-oxo-7-(pyridin-3-ylamino)isoindolin-4-yl) benzamide]"
18,340 nM,"O=C(Nc1ccc(-c2ccccc2)c2c1C(=O)NC2)c1ccc(NCCN2CCOCC2)cc1 [Example 322, 4-((2-Morpholinoethyl)amino)-N-(3-oxo-7-phenylisoindolin-4-yl)benzamide]"
19,2860 nM,"O=C(Nc1ccc(-c2ccccc2)c2c1C(=O)NC2)c1ccc(Br)s1 [Example 156, 5-Bromo-N-(3-oxo-7-phenylisoindolin-4-yl)thiophene-2-carboxamide]"
20,> 20000 nM,"Cn1ncnc1-c1ccc(NC(=O)c2ccccc2)c2c1CNC2=O [Example 59, N-(7-(1-methyl-1H-1,2,4-triazol-5-yl)-3-oxoisoindolin-4-yl) benzamide]"
21,17100 nM,"O=C(Nc1ccc(Nc2cc(C(F)(F)F)cc(C(F)(F)F)c2)c2c1C(=O)NC2)c1ccc(NCCCN2CCCCC2)cc1 [Example 468, N-(7-((3,5-bis(trifluoromethyl)phenyl)amino)-3-oxoisoindolin-4-yl)-4-((3-(piperidin-1-yl)propyl)amino)benzamide]"
22,400 nM,COc1ccccc1-c1ccc(NC(=O)c2ccc(NCCCN3CCOCC3)cc2)c2c1CNC2=O [Example 328]

row,IC50,Structure (SMILES)
1,> 20000 nM,"Cc1ccccc1Nc1ccc(NC(=O)c2ccccc2)c2c1CNC2=O [Example 411, N-(3-oxo-7-(o-tolylamino)isoindolin-4-yl)benzamide]"
2,8100 nM,"CCOc1cccc(-c2ccc(NC(=O)c3ccccc3)c3c2CNC3=O)c1 [Example 177, N-(7-(3-ethoxyphenyl)-3-oxoisoindolin-4-yl)benzamide]"
3,> 20000 nM,"CCCOc1ccc(-c2ccc(NC(=O)c3ccccc3)c3c2CNC3=O)cc1 [Example 132, N-(3-oxo-7-(4-propoxyphenyl)isoindolin-4-yl)benzamide]"
4,2420 nM,"CN(C)CCNc1ccc(C(=O)Nc2ccc(Br)c3c2C(=O)NC3)cc1 [Example 281, N-(7-bromo-3-oxoisoindolin-4-yl)-4-((2-(dimethylamino)ethyl)amino)benzamide]"
5,74 nM,"COc1cccc(-c2ccc(NC(=O)c3ccc(NCCCN(C)C)cc3)c3c2CNC3=O)c1OC [Example 306, N-(7-(2,3-dimethoxyphenyl)-3-oxoisoindolin-4-yl)-4-((3-(dimethylamino)propyl)amino)benzamide]"
6,200 nM,"COc1ccccc1-c1ccc(NC(=O)c2ccc(NC(C)=O)cc2)c2c1CNC2=O [Example 138, 4-Acetamido-N-(7-(2-methoxyphenyl)-3-oxoisoindolin-4-yl) benzamide]"
7,2110 nM,"O=C(Nc1ccc(Nc2ccccc2Cl)c2c1C(=O)NC2)c1ccc(F)cc1 [Example 419, N-(7-((2-chlorophenyl)amino)-3-oxoisoindolin-4-yl)-4-fluorobenzamide]"
8,> 20000 nM,"COc1cc(Cl)ccc1-c1ccc(NC(=O)c2ccccc2)c2c1CNC2=O [Example 49, N-(7-(4-chloro-2-methoxyphenyl)-3-oxoisoindolin-4-yl) benzamide]"
9,780 nM,"CNc1ccc(C(=O)Nc2ccc(-c3ccccc3)c3c2C(=O)NC3)cc1 [Example 108, 4-(Methylamino)-N-(3-oxo-7-phenylisoindolin-4-yl)benzamide]"
10,1100 nM,"O=C(Nc1ccc(-c2ccccc2)c2c1C(=O)NC2)c1ccc(Cl)cc1 [Example 143, 4-Chloro-N-(3-oxo-7-phenylisoindolin-4-yl)benzamide]"
11,420 nM,"Cc1ccccc1Nc1ccc(NC(=O)c2ccc(NCCN3CCCCC3)cc2)c2c1CNC2=O [Example 482, N-(3-oxo-7-(o-tolylamino)isoindolin-4-yl)-4-((2-(piperidin-1-yl)ethyl)amino)benzamide]"
12,1800 nM,"CCCCC(=O)Nc1ccc(-c2ccccc2)c2c1C(=O)NC2 [Example 159, N-(3-oxo-7-phenylisoindolin-4-yl)pentanamide]"
13,> 20000 nM,"O=C(Nc1ccc(-c2cc(F)cc(F)c2)c2c1C(=O)NC2)c1ccccc1 [Example 30, N-(7-(3,5-difluorophenyl)-3-oxoisoindolin-4-yl)benzamide]"
14,1700 nM,"N#Cc1ccccc1-c1ccc(NC(=O)c2ccccc2)c2c1CNC2=O [Example 183, N-(7-(2-cyanophenyl)-3-oxoisoindolin-4-yl)benzamide]"
15,500 nM,"COCCNc1ccc(C(=O)Nc2ccc(-c3ccccc3)c3c2C(=O)NC3)cc1 [Example 321, 4-((2-Methoxyethyl)amino)-N-(3-oxo-7-phenylisoindolin-4-yl) benzamide]"
16,430 nM,"CN(C)CCCNc1ccc(C(=O)Nc2ccc(-c3ccco3)c3c2C(=O)NC3)cc1 [Example 335, 4-((3-(Dimethylamino)propyl)amino)-N-(7-(furan-2-yl)-3-oxoisoindolin-4-yl)benzamide]"
17,1700 nM,"Cc1cccc(-c2ccc(NC(=O)c3ccccc3)c3c2CNC3=O)c1 [Example 113, N-(3-oxo-7-(m-tolyl)isoindolin-4-yl)benzamide]"
18,1100 nM,"O=C(Nc1ccc(-c2ccccc2)c2c1C(=O)NC2=O)c1ccccc1 [Example 276, N-(1,3-dioxo-7-phenylisoindolin-4-yl)benzamide]"
19,2290 nM,"O=C(Nc1ccc(-c2ccccc2)c2c1C(=O)NC2)c1sccc1Cl [Example 155, 3-Chloro-N-(3-oxo-7-phenylisoindolin-4-yl)thiophene-2-carboxamide]"
20,790 nM,"COCCCNc1ccc(C(=O)Nc2ccc(-c3ccccc3)c3c2C(=O)NC3)cc1 [Example 331, 4-((3-Methoxypropyl)amino)-N-(3-oxo-7-phenylisoindolin-4-yl) benzamide]"
21,510 nM,"O=C(Nc1ccc(Nc2ccccc2Cl)c2c1C(=O)NC2)c1ccc(NCCN2CCCC2)cc1 [Example 453, N-(7-((2-chlorophenyl)amino)-3-oxoisoindolin-4-yl)-4-((2-(pyrrolidin-1-yl)ethyl)amino)benzamide]"
22,> 20000 nM,"CC(=O)c1ccc(-c2ccc(N)c3c2CNC3=O)cc1 [Example 64, 4-(4-Acetylphenyl)-7-aminoisoindolin-1-one]"
